According to patent US20070213301A1 (ACHILLION PHARMACEUTICALS, INC., priority 2006, published 2007):

What follows are compounds tested on HCV replicon (assay: HCV replicon replication assay (NPTII ELISA)). Details: Hepatitis C virus, Huh-7, 72 h, inhibition of HCV replicon replication in Huh-7 HCV replicon-containing cells, three days incubation, NPT level by ELISA.
Assay type: cell-based, Hepatitis C virus (Huh-7 cells)
In short: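 Huh-7 cells carrying a Bartenschlager NPTII (neo) HCV replicon, treated 3 days at 37 °C with compound, generally 6 concentrations from 10 to 0.03 micromolar, in equal DMSO across wells. NPTII level, proportional to replication, read by capture ELISA on methanol:acetone-fixed cells; interferon alpha positive control; toxicity scored visually or by MTS.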

SMILES	EC50
CCCCCCCCOc1ccc(N(C(=O)c2cc(C)on2)c2nc(-c3nc4ccccc4s3)cs2)cc1 [Compound 90]	1 to 10 µM
CCCCCN(C)c1ccc(N(C(N)=O)c2nc(-c3ccc(F)c(F)c3)cs2)cc1C(F)(F)F [Compound 107]	< 1 µM

Same assay, conditions: Hepatitis C virus, Huh-7, 72 h, inhibition of HCV replicon replication in Huh-7 HCV replicon-containing cells, three days incubation, NPT level by ELISA; read-out: EC50

SMILES	EC50
COc1ccc(N(C(N)=O)c2nc(-c3ccc(F)cc3)cs2)cc1C(F)(F)F [Compound 85, 1-(4-(4-fluorophenyl)thiazol-2-yl)-1-(4-methoxy-3-(trifluoromethyl)phenyl)urea]	< 1 µM
CCCCCOc1ccc(N(C(N)=O)c2nc(-c3ccc(F)cc3F)cs2)cc1C(F)(F)F [Compound 86, 1-(4-(2,4-difluorophenyl)thiazol-2-yl)-1-(4-(pentyloxy)-3-(trifluoromethyl)phenyl)urea]	< 1 µM
CCCCCOc1ccc(N(C(N)=O)c2nc(-c3cccnc3)cs2)cc1F [Compound 87, 1-(3-fluoro-4-(pentyloxy)phenyl)-1-(4-(pyridin-3-yl)thiazol-2-yl)urea]	< 1 µM
CCCCCCCCOc1ccc(N(C(=O)NC2CCCCC2)c2nc(-c3cccnc3)cs2)cc1 [Compound 88, 3-cyclohexyl-1-(4-(octyloxy)phenyl)-1-(4-(pyridin-3-yl)thiazol-2-yl)urea]	1 to 10 µM
CCCCCCCCOc1ccc(N(C(=O)c2cc(C)on2)c2nc(-c3ccc(Cl)s3)cs2)cc1 [Compound 89, N-(4-(5-chlorothiophen-2-yl)thiazol-2-yl)-5-methyl-N-(4-(octyloxy)phenyl)isoxazole-3-carboxamide]	< 1 µM
CCCCCCCOc1ccc(N(C(=O)c2cc(C)on2)c2nc(-c3ccc(Cl)s3)cs2)cc1 [Compound 91, N-(4-(5-chlorothiophen-2-yl)thiazol-2-yl)-N-(4-(heptyloxy)phenyl)-5-methylisoxazole-3-carboxamide]	< 1 µM
CCCCCCCOc1ccc(N(C(=O)c2cc(C)on2)c2nc(-c3nc4ccccc4s3)cs2)cc1 [Compound 92, N-(4-(benzo[d]thiazol-2-yl)thiazol-2-yl)-N-(4-(heptyloxy)phenyl)-5-methylisoxazole-3-carboxamide]	1 to 10 µM
CCCCCOc1ccc(N(C(=O)c2cc(C)on2)c2nc(-c3nc4ccccc4s3)cs2)cc1C(F)(F)F [Compound 94, N-(4-(benzo[d]thiazol-2-yl)thiazol-2-yl)-5-methyl-N-(4-(pentyloxy)-3-(trifluoromethyl)phenyl)isoxazole-3-carboxamide]	< 1 µM
CCCCCCCOc1ccc(N(C(=O)C2CCCCC2)c2nc(-c3ccccn3)cs2)cc1 [Compound 95, N-(4-(heptyloxy)phenyl)-N-(4-(pyridin-2-yl)thiazol-2-yl)cyclohexanecarboxamide]	1 to 10 µM
CCCCCOc1ccc(N(C(=O)C2CCCCC2)c2nc(-c3ccccn3)cs2)cc1C(F)(F)F [Compound 96, N-(4-(pentyloxy)-3-(trifluoromethyl)phenyl)-N-(4-(pyridin-2-yl)thiazol-2-yl)cyclohexanecarboxamide]	< 1 µM
CCCCCCCCOc1ccc(N(C(=O)C(=O)OC)c2nc(-c3ccc(Cl)s3)cs2)cc1 [Compound 97, methyl 2-((4-(5-chlorothiophen-2-yl)thiazol-2-yl)(4-(octyloxy)phenyl)amino)-2-oxoacetate]	< 1 µM
CCCCCCCOc1ccc(N(C(=O)C(=O)OC)c2nc(-c3ccc(Cl)s3)cs2)cc1 [Compound 98, methyl 2-((4-(5-chlorothiophen-2-yl)thiazol-2-yl)(4-(heptyloxy)phenyl)amino)-2-oxoacetate]	< 1 µM
CCCCCOc1ccc(N(C(=O)C(=O)OC)c2nc(-c3ccc(Cl)s3)cs2)cc1C(F)(F)F [Compound 99, methyl 2-((4-(5-chlorothiophen-2-yl)thiazol-2-yl)(4-(pentyloxy)-3-(trifluoromethyl)phenyl)amino)-2-oxoacetate]	< 1 µM
CCCCCOc1ccc(N(C(=O)C(=O)OC)c2nc(-c3ccc4[nH]c(=O)oc4c3)cs2)cc1C(F)(F)F [Compound 100, methyl 2-oxo-2-((4-(2-oxo-2,3-dihydrobenzo[d]oxazol-6-yl)thiazol-2-yl)(4-(pentyloxy)-3-(trifluoromethyl)phenyl)amino)acetate]	< 1 µM
CCCCCCCCOc1ccc(N(C(=O)c2cccnc2)c2nc(-c3nc4ccccc4s3)cs2)cc1 [Compound 101, N-(4-(benzo[d]thiazol-2-yl)thiazol-2-yl)-N-(4-(octyloxy)phenyl)nicotinamide]	1 to 10 µM
CCCCCOc1ccc(N(C(=O)c2cccnc2)c2nc(-c3nc4ccccc4s3)cs2)cc1C(F)(F)F [Compound 102, N-(4-(benzo[d]thiazol-2-yl)thiazol-2-yl)-N-(4-(pentyloxy)-3-(trifluoromethyl)phenyl)nicotinamide]	< 1 µM
CCCCOc1ccc(N(C(N)=O)c2nc(-c3ccccn3)cs2)cc1C(F)(F)F [Compound 103, 1-(4-butoxy-3-(trifluoromethyl)phenyl)-1-(4-(pyridin-2-yl)thiazol-2-yl)urea]	< 1 µM
CCCCCN(C)c1ccc(N(C(N)=O)c2nc(-c3ccc4c(c3)NC(=O)CO4)cs2)cc1C(F)(F)F [Compound 105, 1-(4-(methyl(pentyl)amino)-3-(trifluoromethyl)phenyl)-1-(4-(3-oxo-3,4-dihydro-2H-benzo[b][1,4]oxazin-6-yl)thiazol-2-yl)urea]	1 to 10 µM

SMILES	EC50
CCCCCN(C)c1ccc(N(C(N)=O)c2nc(-c3ccccn3)cs2)cc1C(F)(F)F [Compound 106, 1-(4-(methyl(pentyl)amino)-3-(trifluoromethyl)phenyl)-1-(4-(pyridin-2-yl)thiazol-2-yl)urea]	< 1 µM
CCCCCOc1ccc(N(C(N)=O)c2nc(-c3ccc(O)c(C(N)=O)c3)cs2)cc1F [Compound 109, 5-(2-(1-(3-fluoro-4-(pentyloxy)phenyl)ureido)thiazol-4-yl)-2-hydroxybenzamide]	1 to 10 µM
CCCCCOc1ccc(N(C(N)=O)c2nc(-c3ccc4c(c3)NC(=O)CO4)cs2)cc1F [Compound 110, 1-(3-fluoro-4-(pentyloxy)phenyl)-1-(4-(3-oxo-3,4-dihydro-2H-benzo[b][1,4]oxazin-6-yl)thiazol-2-yl)urea]	> 10 µM
CCCCCOc1ccc(N(C(N)=O)c2nc(-c3ccc(F)cc3)cs2)cc1F [Compound 111, 1-(3-fluoro-4-(pentyloxy)phenyl)-1-(4-(4-fluorophenyl)thiazol-2-yl)urea]	< 1 µM
CCCCCOc1ccc(N(C(N)=O)c2nc(-c3ccccn3)cs2)cc1F [Compound 112, 1-(3-fluoro-4-(pentyloxy)phenyl)-1-(4-(pyridin-2-yl)thiazol-2-yl)urea]	1 to 10 µM
CCCCCOc1ccc(N(C(N)=O)c2nc(-c3ccc(F)c(F)c3)cs2)cc1F [Compound 113, 1-(4-(3,4-difluorophenyl)thiazol-2-yl)-1-(3-fluoro-4-(pentyloxy)phenyl)urea]	1 to 10 µM
Cc1ccc(-c2csc(N(C(N)=O)c3ccc(OCC4CCCCC4)c(F)c3)n2)cn1 [Compound 114, 1-(4-(cyclohexylmethoxy)-3-fluorophenyl)-1-(4-(6-methylpyridin-3-yl)thiazol-2-yl)urea]	1 to 10 µM
NC(=O)c1cc(-c2csc(N(C(N)=O)c3ccc(OCC4CCCCC4)c(F)c3)n2)ccc1O [Compound 115, 5-(2-(1-(4-(cyclohexylmethoxy)-3-fluorophenyl)ureido)thiazol-4-yl)-2-hydroxybenzamide]	1 to 10 µM
NC(=O)N(c1ccc(OCC2CCCCC2)c(F)c1)c1nc(-c2ccc3c(c2)NC(=O)CO3)cs1 [Compound 116, 1-(4-(cyclohexylmethoxy)-3-fluorophenyl)-1-(4-(3-oxo-3,4-dihydro-2H-benzo[b][1,4]oxazin-6-yl)thiazol-2-yl)urea]	> 10 µM
NC(=O)N(c1ccc(OCC2CCCCC2)c(F)c1)c1nc(-c2ccc(F)cc2)cs1 [Compound 117, 1-(4-(cyclohexylmethoxy)-3-fluorophenyl)-1-(4-(4-fluorophenyl)thiazol-2-yl)urea]	1 to 10 µM
NC(=O)N(c1ccc(OCC2CCCCC2)c(F)c1)c1nc(-c2ccccn2)cs1 [Compound 118, 1-(4-(cyclohexylmethoxy)-3-fluorophenyl)-1-(4-(pyridin-2-yl)thiazol-2-yl)urea]	1 to 10 µM
NC(=O)N(c1ccc(OCC2CCCCC2)c(F)c1)c1nc(-c2cccnc2)cs1 [Compound 119, 1-(4-(cyclohexylmethoxy)-3-fluorophenyl)-1-(4-(pyridin-3-yl)thiazol-2-yl)urea]	< 1 µM
NC(=O)N(c1ccc(OCC2CCCCC2)c(F)c1)c1nc(-c2ccc(F)c(F)c2)cs1 [Compound 120, 1-(4-(cyclohexylmethoxy)-3-fluorophenyl)-1-(4-(3,4-difluorophenyl)thiazol-2-yl)urea]	< 1 µM
CCCCCCOc1ccc(N(C(N)=O)c2nc(-c3ccc4c(c3)NC(=O)CO4)cs2)cc1 [Compound 121, 1-(4-(hexyloxy)phenyl)-1-(4-(3-oxo-3,4-dihydro-2H-benzo[b][1,4]oxazin-6-yl)thiazol-2-yl)urea]	1 to 10 µM
CCCCCCOc1ccc(N(C(N)=O)c2nc(-c3ccc(F)cc3)cs2)cc1 [Compound 122, 1-(4-(4-fluorophenyl)thiazol-2-yl)-1-(4-(hexyloxy)phenyl)urea]	< 1 µM
CCCCCCOc1ccc(N(C(N)=O)c2nc(-c3ccccn3)cs2)cc1 [Compound 123, 1-(4-(hexyloxy)phenyl)-1-(4-(pyridin-2-yl)thiazol-2-yl)urea]	< 1 µM
CCCCCCOc1ccc(N(C(N)=O)c2nc(-c3ccc(F)c(F)c3)cs2)cc1 [Compound 124, 1-(4-(3,4-difluorophenyl)thiazol-2-yl)-1-(4-(hexyloxy)phenyl)urea]	< 1 µM
CC(C)COc1ccc(N(C(N)=O)c2nc(-c3ccc(F)cc3)cs2)cc1C(F)(F)F [Compound 125, 1-(4-(4-fluorophenyl)thiazol-2-yl)-1-(4-isobutoxy-3-(trifluoromethyl)phenyl)urea]	< 1 µM
